{"source": "patent US20030007938A1", "about": "“Methods for treating fingernails and toenails” (priority 2001, published 2003)", "system": "index fingernail and cuticle", "experiment": "Fingernail growth of the index finger in human volunteers, daily topical treatment for four weeks", "type": "in vivo", "protocol": "This Example describes the use of a cream prepared with the complexes of peptone with copper (II) to improve nail growth in humans. The copper soy peptone complex (0.3% copper ion and 4% dry weight of peptone) was mixed into an application cream containing 55% (by weight) aloe vera gel, 12% squalane, 12% glycerol stearate, 5% PEG-100, 4% cetyl alcohol and 0.3% retinol. The placebo-treated control nails were treated with a similar cream that contained no copper-peptide complex. For testing experiments, the fingernail growth rates of the index finger were used as a measurement. In the first set of experiments, the copper-peptide complex was applied to the index fingernail and cuticle on the right hand while the left hand nail was untreated and used as a control. In the second set of experiments with different human volunteers, the copper-peptide cream was applied to the index fingernail and cuticle on the left hand while the right hand nail was treated with the placebo cream and used as a control. Nails were treated daily for four weeks. Nail length was measured from the end of the nail bed to the tip of the nail at its center by pushing a small plastic ruler under the nail and firmly against the nail bed. […] The effect of nail growth stimulation was approximately similar if either the right hand treated group or the left hand treated group was used. For testing experiments, the fingernail growth rates of the index finger were used as a measurement. In the experiments, the copper-peptide complex was applied to the index fingernail and cuticle on the right hand while the left hand nail was treated with the placebo cream and used as a control. Nails were treated daily for four weeks. Nail length was measured from the end of the nail bed to the tip of the nail at its center by pushing a small plastic ruler under the nail and firmly against the nail bed. […]", "note": "Values joined by “and” are separate entries in the source; they are usually repeats but may differ in a detail not shown here. Equal values may be shown once.", "data": [{"substance": "GHK-Copper (II) [GHK-Copper complex]", "values": [{"measurement": "Finger Nail Growth, Right Hand Treated", "setting": "GHK-Copper (II) cream for four weeks, one value per person, left hand placebo control", "result": "3.1 millimeters in four weeks and 3.5 millimeters in four weeks and 3.7 millimeters in four weeks and 3.4 millimeters in four weeks and 2.9 millimeters in four weeks"}, {"measurement": "Visual inspection of treated nails versus control hand", "setting": "four weeks, readily apparent in all cases", "result": "appeared to be longer"}, {"measurement": "Nail growth of treated nails compared with control nails", "setting": "summary in words of the table, four weeks", "result": "better nail growth"}]}]}
